The nature of the assay: Percent inhibition of [3H]PSB-11 binding to adenosine A3 receptor at 10 uM.

The molecule `CCCn1c(=O)c2nc(C3CC(C)(C)N([O])C(C)(C)C3)[nH]c2n(CCC)c1=O` yielded a Ki of 45 nM.

Values taken from BindingDB's records for doi:10.1021/jm049513x (University of Bonn, 2005).
